Data: BindingDB's records for patent US11117900 (Vertex Pharmaceuticals, 2021)

Target: Serine/threonine-protein kinase ATR (Homo sapiens, UniProt Q13535)
Test: Inhibition Assay
Procedure: Compounds were screened for their ability to inhibit ATR kinase using a radioactive-phosphate incorporation assay. Assays were carried out in a mixture of 50 mM Tris/HCl (pH 7.5), 10 mM MgCl2 and 1 mM DTT. Final substrate concentrations were 10 μM [γ-33P]ATP (3 mCi 33P ATP/mmol ATP, Perkin Elmer) and 800 μM target peptide ([…]) (SEQ ID NO:1).Assays were carried out at 25° C. in the presence of 5 nM full-length ATR. An assay stock buffer solution was prepared containing all of the reagents listed above, with the exception of ATP and the test compound of interest. 13.5 μL of the stock solution was placed in a 96 well plate followed by addition of 2 μL of DMSO stock containing serial dilutions of the test compound (typically starting from a final concentration of 15 μM with 3-fold serial dilutions) in duplicate (final DMSO concentration 7%). The plate was pre-incubated for 10 minutes at 25° C. and the reaction initiated by addition of 15 μL [γ-33P]ATP (final concentration 10 μM).The reaction was stopped after 24 hours by the addition of […] containing 2 mM ATP. A multiscreen phosphocellulose filter 96-well plate (Millipore, Cat no. MAPHNOB50) was pretreated with 100 μL 0.2M phosphoric acid prior to the addition of […] of the stopped assay mixture. The plate was washed with 5×2004 0.2M phosphoric acid. […]

Serine/threonine-protein kinase ATR, sequence (Q13535 whole entry): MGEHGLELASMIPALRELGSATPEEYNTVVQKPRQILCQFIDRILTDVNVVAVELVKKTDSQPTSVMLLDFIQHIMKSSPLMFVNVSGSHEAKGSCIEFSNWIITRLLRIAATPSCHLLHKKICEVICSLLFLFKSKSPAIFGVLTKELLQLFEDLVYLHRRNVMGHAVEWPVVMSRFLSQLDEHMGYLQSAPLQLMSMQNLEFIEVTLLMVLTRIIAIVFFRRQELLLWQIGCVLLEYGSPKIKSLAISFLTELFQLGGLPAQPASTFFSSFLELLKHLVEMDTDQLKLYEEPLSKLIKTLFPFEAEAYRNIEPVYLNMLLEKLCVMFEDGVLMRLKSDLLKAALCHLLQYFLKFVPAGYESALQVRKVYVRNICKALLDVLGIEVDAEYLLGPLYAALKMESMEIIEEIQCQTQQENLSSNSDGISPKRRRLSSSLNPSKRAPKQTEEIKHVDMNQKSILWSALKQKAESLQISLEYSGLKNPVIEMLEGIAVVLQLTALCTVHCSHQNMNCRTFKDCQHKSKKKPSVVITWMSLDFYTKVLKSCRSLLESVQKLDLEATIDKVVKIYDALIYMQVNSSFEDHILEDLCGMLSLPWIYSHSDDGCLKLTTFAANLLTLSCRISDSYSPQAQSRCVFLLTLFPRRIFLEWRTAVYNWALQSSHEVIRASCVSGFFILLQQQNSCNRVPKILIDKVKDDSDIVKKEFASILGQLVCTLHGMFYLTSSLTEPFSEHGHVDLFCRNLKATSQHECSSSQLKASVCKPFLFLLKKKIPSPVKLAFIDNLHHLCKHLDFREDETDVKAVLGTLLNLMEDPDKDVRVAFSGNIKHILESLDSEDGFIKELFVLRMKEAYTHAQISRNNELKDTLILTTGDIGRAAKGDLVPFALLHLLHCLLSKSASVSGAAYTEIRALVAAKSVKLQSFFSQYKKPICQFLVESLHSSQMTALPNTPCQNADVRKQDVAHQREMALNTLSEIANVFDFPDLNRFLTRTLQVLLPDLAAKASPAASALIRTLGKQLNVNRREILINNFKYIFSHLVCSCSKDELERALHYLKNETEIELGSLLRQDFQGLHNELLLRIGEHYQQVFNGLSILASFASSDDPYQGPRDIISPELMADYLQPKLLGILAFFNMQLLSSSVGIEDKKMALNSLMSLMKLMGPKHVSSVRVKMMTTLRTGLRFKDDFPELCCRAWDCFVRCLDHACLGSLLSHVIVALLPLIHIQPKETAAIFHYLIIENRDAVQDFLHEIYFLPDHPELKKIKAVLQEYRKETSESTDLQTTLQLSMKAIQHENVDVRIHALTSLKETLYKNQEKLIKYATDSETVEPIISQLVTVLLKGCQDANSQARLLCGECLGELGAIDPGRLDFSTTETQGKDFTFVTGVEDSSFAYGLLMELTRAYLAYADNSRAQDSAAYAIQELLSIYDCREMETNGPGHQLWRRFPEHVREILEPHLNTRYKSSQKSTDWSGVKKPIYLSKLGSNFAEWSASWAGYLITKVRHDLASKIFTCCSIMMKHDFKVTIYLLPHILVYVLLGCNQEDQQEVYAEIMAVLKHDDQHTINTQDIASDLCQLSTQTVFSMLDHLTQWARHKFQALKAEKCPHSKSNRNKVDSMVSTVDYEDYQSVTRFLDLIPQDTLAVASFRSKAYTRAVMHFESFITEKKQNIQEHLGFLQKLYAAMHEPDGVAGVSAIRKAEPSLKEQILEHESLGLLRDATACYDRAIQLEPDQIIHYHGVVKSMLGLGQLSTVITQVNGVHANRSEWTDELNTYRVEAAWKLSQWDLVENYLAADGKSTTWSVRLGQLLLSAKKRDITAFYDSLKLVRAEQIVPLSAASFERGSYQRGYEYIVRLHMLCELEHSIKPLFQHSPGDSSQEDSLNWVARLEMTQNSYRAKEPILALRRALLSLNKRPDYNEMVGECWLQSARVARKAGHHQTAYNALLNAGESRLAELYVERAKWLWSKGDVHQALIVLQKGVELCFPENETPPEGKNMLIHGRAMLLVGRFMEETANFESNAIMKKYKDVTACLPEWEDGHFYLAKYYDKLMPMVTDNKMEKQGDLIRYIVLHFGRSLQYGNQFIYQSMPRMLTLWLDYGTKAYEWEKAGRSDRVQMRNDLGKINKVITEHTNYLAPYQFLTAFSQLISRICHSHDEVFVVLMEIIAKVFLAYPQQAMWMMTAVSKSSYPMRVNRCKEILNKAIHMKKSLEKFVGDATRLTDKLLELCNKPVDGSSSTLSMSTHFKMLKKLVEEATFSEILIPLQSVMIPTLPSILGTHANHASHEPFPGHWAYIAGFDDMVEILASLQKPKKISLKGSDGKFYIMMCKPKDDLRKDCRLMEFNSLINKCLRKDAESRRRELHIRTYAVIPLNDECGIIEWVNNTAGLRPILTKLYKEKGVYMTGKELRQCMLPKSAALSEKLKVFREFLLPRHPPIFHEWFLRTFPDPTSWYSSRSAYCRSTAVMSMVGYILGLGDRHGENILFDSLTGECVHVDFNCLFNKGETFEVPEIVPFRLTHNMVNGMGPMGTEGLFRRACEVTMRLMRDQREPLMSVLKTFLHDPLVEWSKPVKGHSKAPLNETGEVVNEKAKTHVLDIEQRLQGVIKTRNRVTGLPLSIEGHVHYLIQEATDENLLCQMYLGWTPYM

For C[N+]1([O-])CCCC(c2ccncc2NC(=O)c2c(N)nn3cc(F)cnc23)C1 (stereo unspecified) [US11117900, Compound I-C-9], the Ki was “in the range around 505 nM”.
